Experimental data from patent US20260098026A1, “M4 ACTIVATORS/MODULATORS AND USES THEREOF” (Cerevel Therapeutics, LLC, priority 2022, published 2026).

How the values were obtained:
[1] = target: T1, M3 muscarinic acetylcholine receptor (mAChR) (Homo sapiens, UniProt P20309); test: FLIPR calcium assay (Fluo 8), M3-overexpressing CHO-K1 cells; type: cell-based
T1 construct: expressed in transfected cells; host or cells: CHO-K1
Method: Stimulation of a Gq-coupled G-protein coupled receptors (GPCRs), result in an efflux of calcium from the endoplasmic reticulum to the cytoplasm (Berridge, 1993), thus rendering this assay appropriate for the assessment of M1, M3 and M5 receptors. CHO-K1 cells overexpressing the M1, M3, or M5 muscarinic acetylcholine receptor (mAChR) were dispensed at 15,000 cells per well in 30 μl volume to 384-well plates and grown overnight at 37° C. in a 5% CO2 atmosphere. Fluo-8 Solution, 10 μl per well, was added to each well and incubated for 30 minutes at 37° C. in a 5% CO2 atmosphere. Compounds diluted in Hanks' balanced salt solution (HBSS) were transferred to the cell assay plate at 10 μl per well, and then read on a FLIPR instrument. EC50 and Emax figures were calculated from the resulting data for each receptor subtype.

[2] = target: T2, M4 mAChR (Homo sapiens, UniProt P08173); test: cAMP TR-FRET assay with forskolin, M4-overexpressing CHO-K1 cells; type: cell-based
T2 construct: expressed in transfected cells; host or cells: CHO-K1
T2 sequence (P08173 1-479): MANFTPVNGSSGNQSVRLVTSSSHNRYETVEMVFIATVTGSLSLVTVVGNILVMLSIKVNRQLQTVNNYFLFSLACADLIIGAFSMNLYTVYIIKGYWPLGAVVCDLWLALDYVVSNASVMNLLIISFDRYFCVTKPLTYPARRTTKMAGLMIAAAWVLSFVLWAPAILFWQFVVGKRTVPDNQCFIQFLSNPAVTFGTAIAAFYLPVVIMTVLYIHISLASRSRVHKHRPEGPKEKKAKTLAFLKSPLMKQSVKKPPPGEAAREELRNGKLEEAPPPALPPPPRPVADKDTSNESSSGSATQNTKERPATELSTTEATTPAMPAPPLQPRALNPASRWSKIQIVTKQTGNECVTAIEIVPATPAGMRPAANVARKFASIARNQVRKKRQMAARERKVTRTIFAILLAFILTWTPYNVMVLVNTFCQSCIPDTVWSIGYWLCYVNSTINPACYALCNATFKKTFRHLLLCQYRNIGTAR
Source text: The M2 and M4 mACh receptors are Gi-coupled receptors which, upon activation, produce a decrease in cAMP. Assays were developed that measured the potency and efficacy of compounds at the M2 or M4 mAChR using M2- or M4-overexpressing CHO-K1 cell lines. Time-resolved fluorescence resonance energy transfer (TR-FRET) technology was used, where signal occurs as a result of transfer of energy if the donor molecule is in close proximity to an acceptor molecule when the molecules have bound to the molecule of interest. The cAMP detection is a competition binding assay, where cAMP produced by cells competes for binding with the labeled donor molecule to the anti-cAMP acceptor antibody. Due to the low basal levels of cAMP in the CHO-K1 cell line, forskolin was used to increase cAMP levels to enable assessment of agonist activity at the mAChR of interest.

T1 sequence (P20309 whole entry): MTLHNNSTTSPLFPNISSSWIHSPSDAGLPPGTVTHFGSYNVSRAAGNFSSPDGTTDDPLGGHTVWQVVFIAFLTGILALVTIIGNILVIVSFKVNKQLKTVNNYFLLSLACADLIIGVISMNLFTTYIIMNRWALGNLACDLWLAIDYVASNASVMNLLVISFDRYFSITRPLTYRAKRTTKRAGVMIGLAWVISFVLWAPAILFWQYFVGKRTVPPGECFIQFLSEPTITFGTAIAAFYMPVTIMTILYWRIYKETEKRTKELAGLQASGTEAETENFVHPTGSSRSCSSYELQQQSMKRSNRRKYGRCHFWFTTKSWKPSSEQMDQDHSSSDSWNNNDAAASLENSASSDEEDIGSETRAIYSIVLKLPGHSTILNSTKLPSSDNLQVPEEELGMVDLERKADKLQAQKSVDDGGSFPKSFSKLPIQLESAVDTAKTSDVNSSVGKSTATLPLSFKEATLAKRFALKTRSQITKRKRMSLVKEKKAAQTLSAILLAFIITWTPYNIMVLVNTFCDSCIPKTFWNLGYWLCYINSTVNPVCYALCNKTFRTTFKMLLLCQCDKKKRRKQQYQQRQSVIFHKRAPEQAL

EC50 ([1]; FLIPR calcium) [µM]	Emax ([2]; cAMP TR-FRET with forskolin) [%]	EC50 ([1]; FLIPR) [µM]	SMILES	Emax ([2]; cAMP assay) [%]
> 10	80 to 100		CCOC(=O)N1CC2(CC[C@@H](N3CCN(c4cc(F)cnc4-c4ccc(C#N)nc4)CC3)C2)C1 [Compound A29]	
> 10	80 to 100		CCOC(=O)N1CC2(CC[C@@H](N3CCN(c4cc(F)cnc4-c4cncc(C)c4)CC3)C2)C1 [Compound A31]	
> 10	80 to 100		CCOC(=O)N1CC2(CC[C@@H](N3CCN(c4cc(F)cnc4-c4cccc(O)c4)CC3)C2)C1 [Compound A32]	
> 10	80 to 100		CCOC(=O)N1CC2(CC[C@@H](N3CCN(c4cc(F)cnc4-c4ccc5nn(C)cc5c4)CC3)C2)C1 [Compound A33]	
> 10	80 to 100		CCOC(=O)N1CC2(CC[C@@H](N3CCN(c4cc(F)cnc4-c4ccc(CO)cc4)CC3)C2)C1 [Compound A34]	
> 10	80 to 100		CCOC(=O)N1CC2(CC[C@@H](N3CCN(c4cc(F)cnc4-c4cnccc4C)CC3)C2)C1 [Compound A35]	
> 10	80 to 100		CCOC(=O)N1CC2(CC[C@@H](N3CCN(c4cc(F)cnc4-c4cncc(OC)c4)CC3)C2)C1 [Compound A36]	
> 10	80 to 100		CCOC(=O)N1CC2(CC[C@@H](N3CCN(c4cc(F)cnc4-c4cccnc4)CC3)C2)C1 [Compound A37]	
> 10	80 to 100		CCOC(=O)N1CC2(CC[C@@H](N3CCN(c4cc(F)cnc4-c4cccc(C#N)c4)CC3)C2)C1 [Compound A39]	
> 10	80 to 100		CCOC(=O)N1CC2(CC[C@@H](N3CCN(c4cc(F)cnc4-c4ccc(O)c(OC)c4)CC3)C2)C1 [Compound A40]	
> 10	80 to 100		CCOC(=O)N1CC2(CC[C@@H](N3CCN(c4cc(F)cnc4-c4cncc(C(C)(C)O)c4)CC3)C2)C1 [Compound A41]	
> 10	80 to 100		CCOC(=O)N1CC2(CC[C@@H](N3CCN(c4cc(F)cnc4-c4cc(F)ccc4O)CC3)C2)C1 [Compound A42]	
> 10	80 to 100		CCOC(=O)N1CC2(CC[C@@H](N3CCN(c4cc(F)cnc4-c4ccc(C#N)c(OC)c4)CC3)C2)C1 [Compound A43]	
> 10	80 to 100		CCOC(=O)N1CC2(CC[C@@H](N3CCN(c4cc(F)cnc4-c4ccc(O)c(F)c4)CC3)C2)C1 [Compound A44]	
> 10	80 to 100		CCOC(=O)N1CC2(CC[C@@H](N3CCN(c4cc(F)cnc4-c4cccnc4OC)CC3)C2)C1 [Compound A46]	
> 10	80 to 100		CCOC(=O)N1CC2(CC[C@@H](N3CCN(c4cc(F)cnc4-c4ccc5c(c4)OCCO5)CC3)C2)C1 [Compound A48]	
> 10	50 to 79.9		CCOC(=O)N1CC2(CC[C@@H](N3CCN(c4cc(F)cnc4-c4cc(C)cnc4OC)CC3)C2)C1 [Compound A50]	
> 10	80 to 100		CCOC(=O)N1CC2(CC[C@@H](N3CCN(c4cc(F)cnc4-c4ccc5cnn(C)c5c4)CC3)C2)C1 [Compound A54]	
> 10	80 to 100		CCOC(=O)N1CC2(CC[C@@H](N3CCN(c4cc(F)cnc4-c4ccnc(F)c4)CC3)C2)C1 [Compound A55]	
> 10	80 to 100		CCOC(=O)N1CC2(CC[C@@H](N3CCN(c4cc(F)cnc4-c4ccc(N(C)C)nc4)CC3)C2)C1 [Compound A56]	
> 10	80 to 100		CCOC(=O)N1CC2(CC[C@@H](N3CCN(c4cc(F)cnc4-c4cccc(CO)c4)CC3)C2)C1 [Compound A57]	
> 10	80 to 100		CCOC(=O)N1CC2(CC[C@@H](N3CCN(c4cc(F)cnc4-c4ccc5cn(C)nc5c4)CC3)C2)C1 [Compound A68]	
> 10	80 to 100		CCOC(=O)N1CC2(CC[C@@H](N3CCN(c4cc(F)cnc4-c4cnccc4OC)CC3)C2)C1 [Compound A69]	
> 10	50 to 79.9		CCOC(=O)N1CC2(CC[C@@H](N3CCN(c4cc(F)cnc4-c4ccc(OC)c(CO)c4)CC3)C2)C1 [Compound A72]	

The next lines start with the compound.

SMILES	EC50 ([1]; FLIPR calcium) [µM]	Emax ([2]; cAMP TR-FRET with forskolin) [%]	EC50 ([1]; FLIPR) [µM]	Emax ([2]; cAMP assay) [%]
CCOC(=O)N1CC2(CC[C@@H](N3CCN(c4cc(Cl)cnc4C4CCOCC4)CC3)C2)C1 (single isomer, unassigned) [Compound A15]	> 10	80 to 100		
CCOC(=O)N1CC2(CC(N3[C@@H]4CC[C@H]3CN(c3cc(F)cnc3-c3cnccn3)C4)CS2)C1 (single isomer, unassigned) [Compound A219]			> 10	< 19
CCOC(=O)N1CC2(CCC(N3[C@@H]4CC[C@H]3CN(c3cc(F)cnc3-c3cnccn3)C4)C2)C1 (single isomer, unassigned) [Compound A223]			> 10	80 to 100
CCOC(=O)N1CC2(CC[C@@H](N3CCN(c4cc(F)cnc4-c4cnccn4)CC3)C2)C1 [Compound A6, (R)-ethyl 6-(4-(5-fluoro-2-(pyrazin-2-yl)pyridin-3-yl)piperazin-1-yl)-2-azaspiro[3.4]octane-2-carboxylate]	> 10	80 to 100		
CCOC(=O)N1CC2(CC[C@@H](N3CCN(c4cc(F)cnc4NC4CCOCC4)CC3)C2)C1 [Compound A9, ethyl (6R)-6-[4-[5-fluoro-2-(tetrahydropyran-4-ylamino)-3-pyridyl]piperazin-1-yl]-2-azaspiro[3.4]octane-2-carboxylate]	> 10	80 to 100		
CCOC(=O)N1CC2(CC[C@@H](N3CCN(c4cc(F)cnc4-n4cc(C)cn4)CC3)C2)C1 [Compound A10, ethyl (6R)-6-[4-[5-fluoro-2-(4-methylpyrazol-1-yl)-3-pyridyl]piperazin-1-yl]-2-azaspiro[3.4]octane-2-carboxylate]	> 10	80 to 100		
CCOC(=O)N1CC2(CC[C@@H](N3CCN(c4cccnc4-c4cncc(C)c4)CC3)C2)C1 [Compound A25]	> 10	80 to 100		
CCOC(=O)N1CC2(CC[C@@H](N3CCN(c4cccnc4-c4cncc(F)c4)CC3)C2)C1 [Compound A26]	> 10	80 to 100		
CCOC(=O)N1CC2(CC[C@@H](N3CCN(c4cc(F)cnc4-c4ccnc5[nH]ccc45)CC3)C2)C1 [Compound A30]	> 10	80 to 100		
CCOC(=O)N1CC2(CC[C@@H](N3CCN(c4cc(F)cnc4-c4cnn(CCOC)c4)CC3)C2)C1 [Compound A38]	> 10	80 to 100		
CCOC(=O)N1CC2(CC[C@@H](N3CCN(c4cc(F)cnc4-c4ccncc4F)CC3)C2)C1 [Compound A45]	> 10	80 to 100		
CCOC(=O)N1CC2(CC[C@@H](N3CCN(c4cc(F)cnc4-c4ccccc4C#N)CC3)C2)C1 [Compound A47]	> 10	80 to 100		
CCOC(=O)N1CC2(CC[C@@H](N3CCN(c4cc(F)cnc4-c4cccc5c4cnn5C)CC3)C2)C1 [Compound A58]	> 10	80 to 100		
CCOC(=O)N1CC2(CC[C@@H](N3CCN(c4cc(F)cnc4-c4cccc5nn(C)cc45)CC3)C2)C1 [Compound A60]	> 10	80 to 100		
CCOC(=O)N1CC2(CC[C@@H](N3CCN(c4cc(F)cnc4-c4cccc5c[nH]nc45)CC3)C2)C1 [Compound A61]	> 10	80 to 100		
CCOC(=O)N1CC2(CC[C@@H](N3CCN(c4cc(F)cnc4-c4cccc5n[nH]cc45)CC3)C2)C1 [Compound A62]	> 10	80 to 100		
CCOC(=O)N1CC2(CC[C@@H](N3CCN(c4cc(F)cnc4-c4ccncc4C#N)CC3)C2)C1 [Compound A64]	> 10	80 to 100		
CCOC(=O)N1CC2(CC[C@@H](N3CCN(c4cc(F)cnc4-c4cccc5cnn(C)c45)CC3)C2)C1 [Compound A65]	> 10	50 to 79.9		
CCOC(=O)N1CC2(CC[C@@H](N3CCN(c4cc(F)cnc4-c4ccnc(C)n4)CC3)C2)C1 [Compound A254]			> 10	
CCOC(=O)N1CC2(CC[C@@H](N3CCN(c4cc(F)cnc4-c4cnn(C(C)C)n4)CC3)C2)C1 [Compound A257]			> 10	
CCOC(=O)N1CC2(CC[C@@H](N3CCC(c4cc(F)cnc4-c4ccc(F)cn4)CC3)C2)C1 [Compound A292]			> 10	
